Values of other authors, collected in US20050288338A1, “Amido compounds and their use as pharmaceuticals” (priority 2004, published 2005).

Target: T1, 11βHSD1 in the eye (Homo sapiens, UniProt P28845)
T1 construct: host or cells: eye of healthy human volunteers (in vivo)
Conditions: healthy volunteers, after seven days of carbenoxolone treatment

T1 sequence (P28845 whole entry): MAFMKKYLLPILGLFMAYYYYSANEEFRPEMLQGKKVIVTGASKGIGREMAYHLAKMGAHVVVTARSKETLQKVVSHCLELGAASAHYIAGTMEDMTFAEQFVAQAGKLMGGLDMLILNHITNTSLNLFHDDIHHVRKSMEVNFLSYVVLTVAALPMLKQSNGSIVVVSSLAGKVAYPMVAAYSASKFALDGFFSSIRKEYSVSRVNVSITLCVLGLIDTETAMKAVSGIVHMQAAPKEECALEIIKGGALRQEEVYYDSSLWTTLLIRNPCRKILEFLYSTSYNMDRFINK

IOP was reduced by: 18%
SMILES: CC1(C)[C@@H](OC(=O)CCC(=O)O)CC[C@]2(C)[C@H]3C(=O)C=C4[C@@H]5C[C@@](C)(C(=O)O)CC[C@]5(C)CC[C@@]4(C)[C@]3(C)CC[C@@H]12 [carbenoxolone]
